{"source": "patent US9738634B2", "about": "“Heterocyclic amide compound and herbicide” (SYNGENTA PARTICIPATIONS AG, priority 2013, dated 2017)", "type_in_all_cases": "in vivo", "conditions_in_all_cases": "treatment dosage 320 g/ha", "key": {"catchweed [1]": {"test_system": "catchweed", "assay": "Test Example 3: weedkilling efficacy through soil treatment; O: catchweed", "how_it_was_run": "(§1)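 Crop and weed responses were judged three weeks after a uniform surface spray of the water-diluted emulsion at the given g/ha rate. Seeds sat beneath about 1.5 cm of sterilized diluvial soil, and boxes stood in a greenhouse at 25 to 30° C.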"}, "chickweed [2]": {"test_system": "chickweed", "assay": "Test Example 4: weedkilling efficacy by foliar treatment; N: chickweed", "how_it_was_run": "(§2)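 Seeds are spot-sown into sterilized diluvial soil and covered with about 1.5 cm of soil. After 14 days' greenhouse growth at 25 to 30° C, plants are sprayed on stems and leaves with diluted emulsion at the stated g/ha rate, then scored at 3 weeks.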"}, "catchweed [3]": {"test_system": "catchweed", "assay": "Test Example 4: weedkilling efficacy by foliar treatment; O: catchweed", "how_it_was_run": "as §2"}, "common wind-grass [4]": {"test_system": "common wind-grass", "assay": "Test Example 3: weedkilling efficacy through soil treatment; J: common wind-grass", "how_it_was_run": "as §1"}, "Indian mallow [5]": {"test_system": "Indian mallow", "assay": "Test Example 3: weedkilling efficacy through soil treatment; K: Indian mallow", "how_it_was_run": "as §1"}, "black-grass [6]": {"test_system": "black-grass", "assay": "Test Example 3: weedkilling efficacy through soil treatment; H: black-grass", "how_it_was_run": "as §1"}, "black-grass [7]": {"test_system": "black-grass", "assay": "Test Example 4: weedkilling efficacy by foliar treatment; H: black-grass", "how_it_was_run": "as §2"}, "wild oat [8]": {"test_system": "wild oat", "assay": "Test Example 4: weedkilling efficacy by foliar treatment; G: wild oat", "how_it_was_run": "as §2"}, "corn [9]": {"test_system": "corn", "assay": "Test Example 3: soil treatment, effect on crop; c: corn", "how_it_was_run": "as §1"}, "Indian mallow [10]": {"test_system": "Indian mallow", "assay": "Test Example 4: weedkilling efficacy by foliar treatment; K: Indian mallow", "how_it_was_run": "as §2"}, "chickweed [11]": {"test_system": "chickweed", "assay": "Test Example 3: weedkilling efficacy through soil treatment; N: chickweed", "how_it_was_run": "as §1"}, "barnyard grass [12]": {"test_system": "barnyard grass", "assay": "Test Example 4: weedkilling efficacy by foliar treatment; F: barnyard grass", "how_it_was_run": "as §2"}, "green foxtail [13]": {"test_system": "green foxtail", "assay": "Test Example 3: weedkilling efficacy through soil treatment; E: green foxtail", "how_it_was_run": "as §1"}, "redroot pigweed [14]": {"test_system": "redroot pigweed", "assay": "Test Example 4: weedkilling efficacy by foliar treatment; L: redroot pigweed", "how_it_was_run": "as §2"}, "redroot pigweed [15]": {"test_system": "redroot pigweed", "assay": "Test Example 3: weedkilling efficacy through soil treatment; L: redroot pigweed", "how_it_was_run": "as §1"}, "soybean [16]": {"test_system": "soybean", "assay": "Test Example 4: foliar treatment, effect on crop; d: soybean", "how_it_was_run": "as §2"}, "wheat [17]": {"test_system": "wheat", "assay": "Test Example 4: foliar treatment, effect on crop; e: wheat", "how_it_was_run": "as §2"}, "rapeseed [18]": {"test_system": "rapeseed", "assay": "Test Example 4: foliar treatment, effect on crop; g: rapeseed", "how_it_was_run": "as §2"}, "Italian ryegrass [19]": {"test_system": "Italian ryegrass", "assay": "Test Example 4: weedkilling efficacy by foliar treatment; I: Italian ryegrass", "how_it_was_run": "as §2"}, "barnyard grass [20]": {"test_system": "barnyard grass", "assay": "Test Example 3: weedkilling efficacy through soil treatment; F: barnyard grass", "how_it_was_run": "as §1"}, "directly sown rice [21]": {"test_system": "directly sown rice", "assay": "Test Example 4: foliar treatment, effect on crop; b: directly sown rice", "how_it_was_run": "as §2"}, "common wind-grass [22]": {"test_system": "common wind-grass", "assay": "Test Example 4: weedkilling efficacy by foliar treatment; J: common wind-grass", "how_it_was_run": "as §2"}, "Italian ryegrass [23]": {"test_system": "Italian ryegrass", "assay": "Test Example 3: weedkilling efficacy through soil treatment; I: Italian ryegrass", "how_it_was_run": "as §1"}, "green foxtail [24]": {"test_system": "green foxtail", "assay": "Test Example 4: weedkilling efficacy by foliar treatment; E: green foxtail", "how_it_was_run": "as §2"}, "crabgrass [25]": {"test_system": "crabgrass", "assay": "Test Example 3: weedkilling efficacy through soil treatment; D: crabgrass", "how_it_was_run": "as §1"}, "corn [26]": {"test_system": "corn", "assay": "Test Example 4: foliar treatment, effect on crop; c: corn", "how_it_was_run": "as §2"}, "beet": {"test_system": "beet", "assay": "Test Example 4: foliar treatment, effect on crop; f: beet", "how_it_was_run": "as §2"}, "soybean [27]": {"test_system": "soybean", "assay": "Test Example 3: soil treatment, effect on crop; d: soybean", "how_it_was_run": "as §1"}, "fig-leafed goosefoot [28]": {"test_system": "fig-leafed goosefoot", "assay": "Test Example 3: weedkilling efficacy through soil treatment; M: fig-leafed goosefoot", "how_it_was_run": "as §1"}, "directly sown rice [29]": {"test_system": "directly sown rice", "assay": "Test Example 3: soil treatment, effect on crop; b: directly sown rice", "how_it_was_run": "as §1"}, "wild oat [30]": {"test_system": "wild oat", "assay": "Test Example 3: weedkilling efficacy through soil treatment; G: wild oat", "how_it_was_run": "as §1"}, "fig-leafed goosefoot [31]": {"test_system": "fig-leafed goosefoot", "assay": "Test Example 4: weedkilling efficacy by foliar treatment; M: fig-leafed goosefoot", "how_it_was_run": "as §2"}, "wheat [32]": {"test_system": "wheat", "assay": "Test Example 3: soil treatment, effect on crop; e: wheat", "how_it_was_run": "as §1"}, "crabgrass [33]": {"test_system": "crabgrass", "assay": "Test Example 4: weedkilling efficacy by foliar treatment; D: crabgrass", "how_it_was_run": "as §2"}, "rapeseed [34]": {"test_system": "rapeseed", "assay": "Test Example 3: soil treatment, effect on crop; g: rapeseed", "how_it_was_run": "as §1"}, "birds-eye speedwell": {"test_system": "birds-eye speedwell", "assay": "Test Example 3: weedkilling efficacy through soil treatment; p: birds-eye speedwell", "how_it_was_run": "as §1"}}}
{"smiles": "CC1=C(c2cccnc2F)C(=O)N(C(C)(C)C(=O)Nc2cc(Cl)cc(Cl)n2)CO1", "note": "[B-2-11]", "values": [{"measurement": "O (catchweed) weedkilling efficacy grade", "setting": "catchweed [1]", "value": "3 (weed kill ratio 40% or more, less than 70%)"}, {"measurement": "N (chickweed) weedkilling efficacy grade", "setting": "chickweed [2]", "value": "4 (weed kill ratio 70% or more, less than 90%)"}, {"measurement": "O (catchweed) weedkilling efficacy grade", "setting": "catchweed [3]", "value": "4 (weed kill ratio 70% or more, less than 90%)"}, {"measurement": "J (common wind-grass) weedkilling efficacy grade", "setting": "common wind-grass [4]", "value": "5 (weed kill ratio 90% or more, (practically complete withering))"}, {"measurement": "K (Indian mallow) weedkilling efficacy grade", "setting": "Indian mallow [5]", "value": "0 (weed kill ratio 5% or less (practically no effect))"}, {"measurement": "H (black-grass) weedkilling efficacy grade", "setting": "black-grass [6]", "value": "5 (weed kill ratio 90% or more, (practically complete withering))"}, {"measurement": "H (black-grass) weedkilling efficacy grade", "setting": "black-grass [7]", "value": "5 (weed kill ratio 90% or more, (practically complete withering))"}, {"measurement": "G (wild oat) weedkilling efficacy grade", "setting": "wild oat [8]", "value": "4 (weed kill ratio 70% or more, less than 90%)"}, {"measurement": "c (corn) effect on crop grade", "setting": "corn [9]", "value": "1 (weed kill ratio 5% or more, less than 20%)"}, {"measurement": "K (Indian mallow) weedkilling efficacy grade", "setting": "Indian mallow [10]", "value": "5 (weed kill ratio 90% or more, (practically complete withering))"}, {"measurement": "N (chickweed) weedkilling efficacy grade", "setting": "chickweed [11]", "value": "4 (weed kill ratio 70% or more, less than 90%)"}, {"measurement": "F (barnyard grass) weedkilling efficacy grade", "setting": "barnyard grass [12]", "value": "5 (weed kill ratio 90% or more, (practically complete withering))"}, {"measurement": "E (green foxtail) weedkilling efficacy grade", "setting": "green foxtail [13]", "value": "5 (weed kill ratio 90% or more, (practically complete withering))"}, {"measurement": "L (redroot pigweed) weedkilling efficacy grade", "setting": "redroot pigweed [14]", "value": "4 (weed kill ratio 70% or more, less than 90%)"}, {"measurement": "L (redroot pigweed) weedkilling efficacy grade", "setting": "redroot pigweed [15]", "value": "0 (weed kill ratio 5% or less (practically no effect))"}, {"measurement": "d (soybean) effect on crop grade", "setting": "soybean [16]", "value": "4 (weed kill ratio 70% or more, less than 90%)"}, {"measurement": "e (wheat) effect on crop grade", "setting": "wheat [17]", "value": "0 (weed kill ratio 5% or less (practically no effect))"}, {"measurement": "g (rapeseed) effect on crop grade", "setting": "rapeseed [18]", "value": "4 (weed kill ratio 70% or more, less than 90%)"}, {"measurement": "I (Italian ryegrass) weedkilling efficacy grade", "setting": "Italian ryegrass [19]", "value": "5 (weed kill ratio 90% or more, (practically complete withering))"}, {"measurement": "F (barnyard grass) weedkilling efficacy grade", "setting": "barnyard grass [20]", "value": "5 (weed kill ratio 90% or more, (practically complete withering))"}, {"measurement": "b (directly sown rice) effect on crop grade", "setting": "directly sown rice [21]", "value": "3 (weed kill ratio 40% or more, less than 70%)"}, {"measurement": "J (common wind-grass) weedkilling efficacy grade", "setting": "common wind-grass [22]", "value": "5 (weed kill ratio 90% or more, (practically complete withering))"}, {"measurement": "I (Italian ryegrass) weedkilling efficacy grade", "setting": "Italian ryegrass [23]", "value": "5 (weed kill ratio 90% or more, (practically complete withering))"}, {"measurement": "E (green foxtail) weedkilling efficacy grade", "setting": "green foxtail [24]", "value": "5 (weed kill ratio 90% or more, (practically complete withering))"}, {"measurement": "D (crabgrass) weedkilling efficacy grade", "setting": "crabgrass [25]", "value": "5 (weed kill ratio 90% or more, (practically complete withering))"}, {"measurement": "c (corn) effect on crop grade", "setting": "corn [26]", "value": "5 (weed kill ratio 90% or more, (practically complete withering))"}, {"measurement": "f (beet) effect on crop grade", "setting": "beet", "value": "4 (weed kill ratio 70% or more, less than 90%)"}, {"measurement": "d (soybean) effect on crop grade", "setting": "soybean [27]", "value": "0 (weed kill ratio 5% or less (practically no effect))"}, {"measurement": "M (fig-leafed goosefoot) weedkilling efficacy grade", "setting": "fig-leafed goosefoot [28]", "value": "4 (weed kill ratio 70% or more, less than 90%)"}, {"measurement": "b (directly sown rice) effect on crop grade", "setting": "directly sown rice [29]", "value": "3 (weed kill ratio 40% or more, less than 70%)"}, {"measurement": "G (wild oat) weedkilling efficacy grade", "setting": "wild oat [30]", "value": "3 (weed kill ratio 40% or more, less than 70%)"}, {"measurement": "M (fig-leafed goosefoot) weedkilling efficacy grade", "setting": "fig-leafed goosefoot [31]", "value": "5 (weed kill ratio 90% or more, (practically complete withering))"}, {"measurement": "e (wheat) effect on crop grade", "setting": "wheat [32]", "value": "0 (weed kill ratio 5% or less (practically no effect))"}, {"measurement": "D (crabgrass) weedkilling efficacy grade", "setting": "crabgrass [33]", "value": "5 (weed kill ratio 90% or more, (practically complete withering))"}, {"measurement": "g (rapeseed) effect on crop grade", "setting": "rapeseed [34]", "value": "1 (weed kill ratio 5% or more, less than 20%)"}, {"measurement": "P (birds-eye speedwell) weedkilling efficacy grade", "setting": "birds-eye speedwell", "value": "5 (weed kill ratio 90% or more, (practically complete withering))"}]}
